Data published in ChEMBL document CHEMBL1152021, “(E) and (Z)-3-Styrylpiperidines as sigma ligands” (Bioorg Med Chem Lett, 1997).

target: D(1A) dopamine receptor (Rattus norvegicus, UniProt P18901); assay: Binding affinity at dopamine D1 receptor in rat striatum by [3H][…] displacement.; format: tissue-based
Sequence (P18901 whole entry): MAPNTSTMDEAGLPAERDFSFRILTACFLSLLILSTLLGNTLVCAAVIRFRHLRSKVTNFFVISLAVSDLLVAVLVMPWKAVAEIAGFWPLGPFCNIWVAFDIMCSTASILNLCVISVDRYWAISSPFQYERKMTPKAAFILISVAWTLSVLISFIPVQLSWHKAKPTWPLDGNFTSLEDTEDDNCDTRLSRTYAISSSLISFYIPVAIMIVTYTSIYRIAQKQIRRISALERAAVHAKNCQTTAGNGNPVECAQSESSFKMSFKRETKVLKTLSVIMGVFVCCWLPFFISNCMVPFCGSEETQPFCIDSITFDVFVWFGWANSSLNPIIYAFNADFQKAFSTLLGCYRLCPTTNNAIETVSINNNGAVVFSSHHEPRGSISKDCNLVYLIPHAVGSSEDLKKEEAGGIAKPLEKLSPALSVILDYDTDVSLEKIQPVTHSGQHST

| IC50 [nM] | Structure (SMILES) |
| --- | --- |
| > 10000 | C(=C\C1CCCN(CCc2ccccc2)C1)/c1ccccc1 (stereo not drawn) |
| 630 | C(=C/C1CCCN(CCc2ccccc2)C1)/c1ccccc1 (stereo not drawn) |
| 2200 | C(=C/C1CCCN(CCCc2ccccc2)C1)/c1ccccc1 (stereo not drawn) |
| 320 | CC(C)=CCN1CCCC(/C=C\c2ccccc2)C1 (stereo not drawn) |
| > 10000 | C(=C/C1CCCN(CCC2CCCCC2)C1)/c1ccccc1 (stereo not drawn) |
| 1550 | C(=C\C1CCCN(CCCc2ccccc2)C1)/c1ccccc1 (stereo not drawn) |
| > 10000 | C(=C/C1CCCNC1)/c1ccccc1 (stereo not drawn) |
| > 10000 | C(=C/C1CCCN(C2CCCCC2)C1)/c1ccccc1 (stereo not drawn) |
| 5840 | C(=C/C1CCCN(CCCCc2ccccc2)C1)/c1ccccc1 (stereo not drawn) |
| > 10000 | C=CCN1CCCC(/C=C/c2ccccc2)C1 (stereo not drawn) |
| 1330 | CC(C)=CCN1CCCC(/C=C/c2ccccc2)C1 (stereo not drawn) |
| > 10000 | C(=C\C1CCCN(C2CCCCC2)C1)/c1ccccc1 (stereo not drawn) |
| > 10000 | C(=C\C1CCCNC1)/c1ccccc1 (stereo not drawn) |

target: Sigma non-opioid intracellular receptor 1 (Rattus norvegicus, UniProt Q9R0C9); assay: Binding affinity at sigma receptor by [3H](+)-SKF-10047 displacement.
Sequence (Q9R0C9 whole entry): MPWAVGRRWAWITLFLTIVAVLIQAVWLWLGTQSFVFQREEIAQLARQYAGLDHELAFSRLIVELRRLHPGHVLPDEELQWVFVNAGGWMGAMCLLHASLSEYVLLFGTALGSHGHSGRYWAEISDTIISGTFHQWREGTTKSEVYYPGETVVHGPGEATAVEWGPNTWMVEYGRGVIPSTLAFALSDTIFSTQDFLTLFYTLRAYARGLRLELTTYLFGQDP

| IC50 [nM] | Structure (SMILES) |
| --- | --- |
| 27 | C(=C/C1CCCN(CCCSc2nc3ccccc3s2)C1)/c1ccccc1 (stereo not drawn) |
| 6 | C(=C\C1CCCN(CCc2ccccc2)C1)/c1ccccc1 (stereo not drawn) |
| 12 | C=CCCCN1CCCC(/C=C/c2ccccc2)C1 (stereo not drawn) |
| 0.8 | C(=C/C1CCCN(CCc2ccccc2)C1)/c1ccccc1 (stereo not drawn) |
| 0.6 | C(=C/C1CCCN(CCCc2ccccc2)C1)/c1ccccc1 (stereo not drawn) |
| 1 | CC(C)=CCN1CCCC(/C=C\c2ccccc2)C1 (stereo not drawn) |
| 10 | C(=C\C1CCCN(Cc2ccccc2)C1)/c1ccccc1 (stereo not drawn) |
| 33 | C(=C\C1CCCN(CCCOc2ccccc2)C1)/c1ccccc1 (stereo not drawn) |
| 640 | O=C(CN1CCCC(/C=C\c2ccccc2)C1)Nc1ccccc1 (stereo not drawn) |
| 7 | C(=C/C1CCCN(CCC2CCCCC2)C1)/c1ccccc1 (stereo not drawn) |
| 4 | C(=C\C1CCCN(CCCc2ccccc2)C1)/c1ccccc1 (stereo not drawn) |
| 64 | C(=C/C1CCCNC1)/c1ccccc1 (stereo not drawn) |
| 15 | O=C(CCCN1CCCC(/C=C\c2ccccc2)C1)c1ccccc1 (stereo not drawn) |
| 23 | O=C(NCCCCN1CCCC(/C=C\c2ccccc2)C1)C12C[C@H]3C[C@@H](C1)C[C@@H](C2)C3 (stereo partly drawn) |
| 2 | C(=C/C1CCCN(C2CCCCC2)C1)/c1ccccc1 (stereo not drawn) |
| 7 | C(=C/C1CCCN(CCCCc2ccccc2)C1)/c1ccccc1 (stereo not drawn) |
| 4 | C=CCN1CCCC(/C=C/c2ccccc2)C1 (stereo not drawn) |
| 23 | O=C1c2ccccc2S(=O)(=O)N1CCCCN1CCCC(/C=C/c2ccccc2)C1 (stereo not drawn) |
| 38 | CC(C)=CCN1CCCC(/C=C/c2ccccc2)C1 (stereo not drawn) |
| 6 | C(=C\C1CCCN(C2CCCCC2)C1)/c1ccccc1 (stereo not drawn) |
| 15 | C(=C/C1CCCN(CCCOc2ccccc2)C1)/c1ccccc1 (stereo not drawn) |
| 423 | C(=C\C1CCCNC1)/c1ccccc1 (stereo not drawn) |

target: D(2) dopamine receptor (Rattus norvegicus, UniProt P61169); assay: Binding affinity at dopamine D2 receptor in rat striatum by [3H]spiperone displacement.; format: tissue-based
Sequence (P61169 whole entry): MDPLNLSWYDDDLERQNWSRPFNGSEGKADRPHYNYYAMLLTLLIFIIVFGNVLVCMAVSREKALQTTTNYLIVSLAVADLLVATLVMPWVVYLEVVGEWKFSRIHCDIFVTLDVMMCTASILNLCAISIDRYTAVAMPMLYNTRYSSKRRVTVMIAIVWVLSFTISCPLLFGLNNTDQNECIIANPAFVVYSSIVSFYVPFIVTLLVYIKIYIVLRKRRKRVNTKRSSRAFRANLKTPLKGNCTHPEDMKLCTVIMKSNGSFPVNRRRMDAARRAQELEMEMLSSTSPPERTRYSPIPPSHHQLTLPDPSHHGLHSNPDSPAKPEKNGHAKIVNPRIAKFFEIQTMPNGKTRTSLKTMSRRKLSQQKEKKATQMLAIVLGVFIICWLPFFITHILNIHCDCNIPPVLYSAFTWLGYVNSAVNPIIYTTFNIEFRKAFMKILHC

| IC50 [nM] | Structure (SMILES) |
| --- | --- |
| 2400 | C(=C\C1CCCN(CCc2ccccc2)C1)/c1ccccc1 (stereo not drawn) |
| 120 | C(=C/C1CCCN(CCc2ccccc2)C1)/c1ccccc1 (stereo not drawn) |
| 150 | C(=C/C1CCCN(CCCc2ccccc2)C1)/c1ccccc1 (stereo not drawn) |
| 160 | CC(C)=CCN1CCCC(/C=C\c2ccccc2)C1 (stereo not drawn) |
| 5440 | C(=C/C1CCCN(CCC2CCCCC2)C1)/c1ccccc1 (stereo not drawn) |
| 1240 | C(=C\C1CCCN(CCCc2ccccc2)C1)/c1ccccc1 (stereo not drawn) |
| 870 | C(=C/C1CCCNC1)/c1ccccc1 (stereo not drawn) |
| 1120 | C(=C/C1CCCN(C2CCCCC2)C1)/c1ccccc1 (stereo not drawn) |
| 1440 | C(=C/C1CCCN(CCCCc2ccccc2)C1)/c1ccccc1 (stereo not drawn) |
| > 10000 | C=CCN1CCCC(/C=C/c2ccccc2)C1 (stereo not drawn) |
| 180 | CC(C)=CCN1CCCC(/C=C/c2ccccc2)C1 (stereo not drawn) |
| 5120 | C(=C\C1CCCN(C2CCCCC2)C1)/c1ccccc1 (stereo not drawn) |
| > 10000 | C(=C\C1CCCNC1)/c1ccccc1 (stereo not drawn) |
